Assay results published in a melting point compilation (Tetko et al.; mined from patent text by program, amines drawn as free bases though some values may be those of a salt).

Compound | melting point [°C]
CC1COc2c(F)c(Cl)cc3c(=O)c(C(=O)O)cn1c23 (stereo unspecified) | > 300
CCc1cc2c(cc1O)C(C)(C)CCC2(C)C | 88 to 89
CN(C)C(=O)c1nn(-c2ccncc2)c(=O)c2c1c1ccc(Cl)cc1n2C | 276 to 278
O=C(c1ccc(C(F)(F)F)cc1)c1cccc(O)c1 | 130
COC(=O)NC1CN(C(=O)c2cc(OC)c(OC)c(OC)c2)CCN1C(=O)C1=Cc2cc(OC)c(OC)cc2CCC1 (stereo unspecified) | 143 to 145
CN(C)c1ccc(C=CC(=O)CC(=O)C=Cc2ccc(N(C)C)cc2)cc1 | 207 to 208
CCCCc1ccc(NC=NO)c(C)c1 | 132 to 134
CCCCCCCOc1c(OC)cc(N)c2nccc(C)c12 | 68 to 70
CCOC(=O)c1[nH]c(SCC)nc1C(C)(C)O | 82 to 85
CC1CN=C2C=CC(c3cccnc3)=NN21 (stereo unspecified) | 104 to 105
CCOc1cccc(-c2ccc(C3=CCN(S(=O)(=O)CC(=O)NO)CC3)cc2C)c1 | 151 to 153
COc1cc(NC(=O)Nc2cnc3c(C)cc(C)cc3c2-c2ccccc2Cl)cc(OC)c1OC | 204 to 206
CC(C)(C)NC(=O)c1nn(-c2ccc(F)cc2F)c2c1[C@@H]1CC[C@@]2(C)C1(C)C | 161 to 163
CCCCCCCCCCNc1nc(NCC(O)C2CC(C)(C)NC(C)(C)C2)nc(NCC(O)C2CC(C)(C)NC(C)(C)C2)n1 (stereo unspecified) | 106 to 107
CCOC(=O)C1CN(C)c2nc(Cl)ncc2C1=O (stereo unspecified) | 175
CCn1c2ccccc2c2cc(N(c3ccccc3)c3ccc(-c4ccc(N(c5ccccc5)c5ccc6c(c5)c5ccccc5n6CC)cc4)cc3)ccc21 | 250 to 252
c1cn2nc(SCCOC3CCCCO3)ccc2n1 (stereo unspecified) | 60 to 62
N#Cc1cc2c(nc1N1CCCCCC1)CCCC2=O | 76 to 78
O=[N+]([O-])c1oc2c(CO)cccc2c1-c1ccccc1 | 128 to 130
COc1cc(Nc2c(C#N)cnc3cc4cc(OCCCCl)c(OC)cc4cc23)c(Cl)cc1Cl | 220 to 223
O=C1NCCN(C(=O)OCc2ccccc2)C1Cc1ccccc1 (stereo unspecified) | 125 to 128
OCCOc1ccc(C2CCc3ccccc3O2)cc1 (stereo unspecified) | 84 to 85
COc1cc(COc2nn(-c3ccccc3)cc2/C=C/S(C)(=O)=O)ccc1OCc1nc(-c2ccco2)oc1C | 152 to 153

Compound | melting point [°C]
O=C(Nc1nc2ccccc2s1)c1cn(-c2ccccc2)c2ccccc2c1=O | 295 to 297
O=C(CCS(=O)C(c1ccccc1)c1ccccc1)NO (stereo unspecified) | 159 to 160
COC(=O)Cc1ccc2c(c1)CCc1ccccc1S2 | 103 to 105
NCCc1ccc(OCc2ccccc2)c(NC(N)=O)c1 | 176 to 180
CCCCCC(=O)NC(=O)C(c1ccccc1)c1ccccc1 | 87
N#Cc1c[nH]c2cc(Cl)c([N+](=O)[O-])cc2c1=O | > 300
Cc1oc2ccc(N)cc2c(=O)c1C | 202 to 204
Nc1cccc(-c2ccc(CCN3CCC4(CC3)NC(=O)N(CCc3ccccc3)C4=O)cc2)n1 | 176 to 180
CNC(=O)CC1CN=C(c2cc3cc(Oc4ccc(S(C)(=O)=O)nc4)c(F)c(OCCOC)c3[nH]2)S1 (stereo unspecified) | 151 to 152
O=C(NC1CCC(CCN2CCC(c3cccc4c3CCO4)CC2)CC1)C1CC1(F)F (stereo unspecified) | 199
Cc1nc2ccc3c(c2o1)C(O)(CC#N)C(C(C)C)C3 (stereo unspecified) | 149 to 152
O=C(NCCCN1CCN(Cc2ccc(Cl)cc2)CC1)Nc1ccccc1 | 135 to 137
CC(=O)Oc1cc(C)c(C)cc1C1(OC(C)=O)C(=O)c2ccccc2C1=O | 206 to 207
CN1CCc2nc3cc(Cl)ccc3c(NNc3ccccc3)c2C1 | 175 to 178
C#Cc1ccc(NC=C(C(=O)NCCC)C(=O)c2ccccc2Cl)cc1 | 95 to 96
COC(=O)CCc1ccc(-n2cn[nH]c2=O)cc1 | 174 to 176
C=CCNC(=O)[C@H]1N(C(=O)OC(C)(C)C)CSC1(C)C | 94 to 98
Fc1cccc(CCc2nnc(-c3ccnc4[nH]ccc34)o2)c1 | 147 to 148
CSc1ccc(CC2C(C)=Cc3cc(F)ccc32)cc1 (stereo unspecified) | 58 to 59
O=c1[nH]c2cc(Cl)c(S(=O)CCN3CCC(Cc4ccc(F)cc4)CC3)cc2o1 (stereo unspecified) | 199 to 200
Cc1c(-c2ccccc2)oc2c(SCCCCCl)cccc2c1=O | 81 to 84
Cc1cc(Cl)cc(NC(=O)Cc2ccc(O)cc2)c1 | 176 to 178
Oc1ccc2c(c1)Cc1c-2cc2ccc(O)cc2c1C=C(F)F | 211 to 212

Compound | melting point [°C]
O=C(Nc1ccc(F)cc1)NC1CC1 | 205
CCCCCCC(C(=O)O)n1nnc(NC(=O)c2ccccc2C(=O)O)n1 (stereo unspecified) | 140 to 142
Cn1cc(C2=C(c3cn(CCCNS(C)(=O)=O)c4ccccc34)C(=O)NC2=O)c2ccccc21 | 135 to 138
O=[N+]([O-])c1ccc(OCc2nnco2)cc1 | 125 to 126
CCOc1ccccc1C=[N+]([O-])C1CCC1 | 76
CCOC(=O)c1ncc2[nH]c3ccc(C4CCCCC4)cc3c2c1COC | 254 to 266
CN(C)C(=O)c1c(-c2ccc(N(C)C)cc2)ccc2ccccc12 | 156 to 157
OCC1CC(O)C(n2c(NC3CC3)nc3cc(Cl)c(Cl)cc32)C1 (stereo unspecified) | 251 to 253
CC(C(=O)N(C)C)n1cc(Cl)c(-c2ccccc2Cl)n1 (stereo unspecified) | 108 to 111
COc1cc(Nc2nccc(Nc3ccc4c(ccn4S(=O)(=O)c4ccccc4)c3)n2)cc(OC)c1OC | 127
C=CCOc1ccc(C2=NNC(=O)CC2)cc1 | 130 to 132
Cc1ccccc1-c1ccc(C(=O)N2Cc3ccc(C(=O)NCc4ccc(OC(F)(F)F)cc4)n3Cc3ccccc32)cc1C | 147 to 149
O=C(c1cccs1)c1cnn2c(Cl)ccnc12 | 148 to 150
O=C(NCc1ccc(Cl)cc1)c1cnc2cc(Cl)ccc2c1O | 237 to 239
COc1ccc(NC(=O)OC2CN3CCC2CC3)cc1 (stereo unspecified) | 160
CN(C(=O)CN(C(=O)CNC(=O)Nc1cccc(S(N)(=O)=O)c1)c1ccccc1)c1ccccc1 | 175
O=C1Cc2cc(-c3ccccc3)ccc2N1 | 214 to 215
COC(=O)C12COc3cc(F)ccc3N1N=C(C(=O)Nc1ccc(C(F)(F)F)cc1)C2 (stereo unspecified) | 178 to 181
Fc1ccc(-c2ccccc2)c(F)c1 | 63 to 65
O=S1(=O)N=C(c2ccc(Cl)cc2)N(c2cc(Cl)cc(Cl)c2)c2ccncc21 | 284 to 286
COC(=O)[C@@H]1C[C@H](OC(=N)C(Cl)(Cl)Cl)C(=O)[C@H]2[C@@]1(C)CC[C@H]1C(=O)O[C@H](c3ccoc3)C[C@]21C | 120 to 123

Now from value to molecule:

melting point [°C] | Compound
126 | Cn1c([N+](=O)[O-])cnc1COc1ccc(C(F)(F)F)cc1[N+](=O)[O-]
148 to 150 | CCN1C(=O)C(C)(C)C(=O)N(C)c2cc(CN(CCn3ccc4oc(C)c(C)c4c3=O)Cc3cc(C)nn3C)ccc21
143 | CCCc1c(OCCCSc2ccc(CC(=O)O)cc2Cl)ccc2c(-c3ccccc3)coc12
196 | O=c1[nH]c2ccccc2n1CCCCN1CCC(c2c[nH]c3ccccc23)CC1
198 to 199 | CS(=O)(=O)c1ccc(CC(=S)N2CCOCC2)cc1
125 to 127 | CC1(C)NC2C(=O)N(C(O)C(=O)OCC(Cl)(Cl)Cl)C2S1 (stereo unspecified)
132 to 135 | O=C(O)Cc1cccc(Oc2ccccc2)c1O
207 to 208 | CCCc1nc2c(N)nc3cc(Oc4ccccc4[N+](=O)[O-])ccc3c2n1CC(C)C
269 to 271 | CN1CCC(c2[nH]c(=O)c3ccccc3c2-c2ccc(F)cc2)CC1
99 to 103 | CC(C)c1nc(CN=[N+]=[N-])n(Cc2cccnc2)c1Sc1cc(Cl)cc(Cl)c1
53 to 57 | COc1cc(Cl)cc(CC#N)c1Cl
179 to 181 | O=C(c1ccc(-n2cccn2)cc1)N1Cc2cccn2Cc2ccccc21
274 to 276 | Sc1nc(-c2ccc(Cl)cc2)c(-c2cccs2)[nH]1
166 to 167 | CC1(C)NC(=O)N(c2ccc(F)cc2)C1=O
198 to 199 | CCOc1ccc(S(=O)(=O)N2CCN(C)CC2)cc1-c1nc2c(COC)nn(C)c2c(=O)[nH]1
153 to 154 | CC(=O)c1cc2c(c(O)c1O)OC(C)(C)CC2C (stereo unspecified)
> 250 | Nc1nc2cccnc2c2c1nc(CO)n2CC1(O)CCOCC1

melting point [°C] | Compound
168 to 169 | CCOc1ccc(CCNC(=O)C(N)=O)cc1OCC
65 to 67 | CC1(C)OCC(C)(C)c2cc(OS(C)(=O)=O)ccc2O1
59 to 60 | CCCc1cc(CC(=O)OC)ccc1OC1COc2ccc(C(C)=O)c(O)c2C1 (stereo unspecified)
210 | COC(C)=CC(=O)Nc1cccc(OC(=O)NC(C)C)c1
126 to 128 | N#CCc1ccc(NC(=O)C(F)(F)C(F)(F)C(F)(F)C(F)(F)F)cc1
94 to 100 | CN(C)C=C1C(=O)CCc2c1cnn2C
180 to 183 | N#Cc1cnc2cc(Br)ccc2c1Nc1ccc(Cl)cc1Cl
97 to 98 | COc1cccc(C(CCCCCCc2ccccc2)CNC(=O)Cc2c(Cl)cncc2Cl)c1 (stereo unspecified)
117 to 118 | CC1(C)NC(=S)C1(C)C
189 to 190 | COc1cc(OC)cc(N2CCN(C(=S)Nc3cc(C(C)O)c(C)nc3OC)CC2)c1 (stereo unspecified)
233 to 235 | CCOCc1nc2c(N)nc3ccccc3c2n1CCCC(N)=O
145 to 147 | CCOC(=O)C(=C1SC=C(O)S1)S(C)(=O)=O
192 to 195 | CC(C)(C)NC(=O)N1CCn2c(Cl)c(-c3cccc(C#N)c3)c(C(N)=O)c2C1
137 | OCc1ccc(Cn2c(NC3CCN(CC(O)COc4ccc(F)cc4)CC3)nc3ccccc32)o1 (stereo unspecified)
111 to 113 | Cc1oc(-c2cccc([N+](=O)[O-])c2)nc1CCl
75 to 77 | CN1C(=O)OC[C@H]1Cc1ccccc1
210 | CCSc1nc(-c2ccc(O)cc2)cn1C
